{"source": "patent US20250129113A1", "about": "“NEW GLYCOSIDE COMPOUND AND PREPARATION PROCESS THEREOF” (SunIn Biotech Co., Ltd., priority 2023, published 2025)", "key": {"[1]": {"test_system": "TNF-α gene expression in THP1 cells differentiated into M1-type macrophages", "experiment": "Real-time PCR inflammatory gene expression assay, TNF-α", "type": "cell-based, human", "details": "16 μM; THP1 differentiation into M1-type macrophages (LPS, IFN-γ); 25 mM glucose", "procedure": "(§1) Human acute monocytic leukemia, THP1 cells were cultured in Roswell Park Memorial Institute (RPMI) 1640 medium added with 10% fetal calf serum, and then the cells were put in a humidified incubator at 37° C., and with an air of 5% carbon dioxide and 95% oxygen.\n(§2) THP1 cells were treated with 100 ng/ml of phorbol 12-myristate 13-acetate (PMA) for 24 hours to induce activation. The following day, the medium was replaced with RPMI 1640 (25 mM Glucose, 10% FBS) and incubated for another 24 hours. The cells were then differentiated into M1 phase macrophages by switching to RPMI 1640 medium containing LPS (10 pg/ml) and IFN-γ (20 ng/ml), and into M2 phase macrophages using RPMI 1640 medium containing IL-4 (20 ng/ml) and IL-13 (20 ng/ml). During the 48-hour differentiation process, the test drug Nusynside (16 μM) was added. After 24 hours of differentiation, mRNA from M1 and M2 phase macrophages was extracted using the PROTECH Kit, and reverse transcription of mRNA into cDNA was performed with the Protech MMLV Reverse Transcription Kit. Gene expression was subsequently observed. According to the POWERTRACK SYBR dye protocol, the cDNA was mixed, and gene expression was analyzed using the StepOnePlus Real-Time PCR Systems to examine inflammatory gene expression when THP1 cells were differentiated into M1 and M2 phase macrophages in the presence of Nusynside (16 μM)."}, "[2]": {"test_system": "full-skin wound in BKS.Cg-Dock7m+/+ Leprdb/Jnarl male mice", "experiment": "Diabetic mice wound healing study", "type": "in vivo", "details": "Nusynside 0.23 mg, Day 17 after continuous administration, compared to Blank group", "procedure": "BKS.Cg-Dock7m+/+ Leprdb/Jnarl male mice, an established diabetes model, were obtained from the National Applied Research Laboratories, Taiwan. The experiment was conducted when the mice were 6 to 7 weeks old. A full-skin wound of the same size with a diameter of about 6 mm was made on the left and right sides of each mouse's back.\nTotal 14 mice were randomly divided into 4 groups based on body weight: (i) Nusynside test group (administrated with Nusynside 0.23 mg) (n=4); (ii) Positive Control group (administrated with cream containing Centella Asiatica and Plectranthus amboinicus extract) (n=4); (iii) Vehicle Control group (administrated with ointment base) (n=3); (vi) Blank group (n=3). The animals underwent bilateral incisions and were housed individually in separate cages after the incisions, in the IVC housing system of the general SPF breeding area. Daily external cage observations were conducted by the animal caretakers. On the day of the incision and during follow-up photography, the body weight of the animals, wound appearance, and wound area were measured and recorded, except that the wound had healed resulting in it disable to be measured, the measurements were taken twice a week."}, "[3]": {"test_system": "HaCaT cells", "experiment": "Cell proliferation assay (CCK-8), HaCaT cells", "type": "cell-based, human", "details": "25 mM glucose, 48 hours, vs control group", "procedure": "(§3) Human Foreskin Fibroblast, Hs68 cells and human keratinocytes, HaCaT cells were cultured in Dulbecco's Modified Eagle Medium (DMEM) added with glucose and 10% fetal calf serum, and then the cells were put in a humidified incubator with an air of 5% carbon dioxide and 95% oxygen. The medium was changed every two days. The subculture was performed, and then treated with 0.25% trypsin (TRYPSIN-EDTA) mixture. Finally, the cells were collected and diluted at a ratio of 1:5 for re-culture. The cells used in the efficacy test had passage numbers ranging from 12 to 40.\nHaCaT cells at the number of 5×10^3 were cultured Culture in DMEM culture medium for 48 hours. The cell growth and survival status were analyzed with the CCK-8 reagent kit (DOJINDO MOLECULAR TECHNOLOGIES, KUMAMOTO, JAPAN). 10 μL CCK-8 solution was added to each cell culture and the cells were incubated at 37° C. for one hour, and then the cells were measured by the spectrophotometer MICROPLATE READER (THERMO LABSYSTEMS MULTISKAN RC) at 450 nm absorption, and the experimental results were analyzed by a comparison with the control group."}, "[4]": {"test_system": "Hs68 cells", "experiment": "Cell proliferation assay (CCK-8), Hs68 cells", "type": "cell-based, human", "details": "25 mM glucose, 24 hours, vs control group", "procedure": "as §3\nThe Hs68 cells were cultured in DMEM culture medium for 24 hours. The cell growth and survival status were analyzed with the CCK-8 reagent kit (DOJINDO MOLECULAR TECHNOLOGIES, KUMAMOTO, JAPAN). 10 μL CCK-8 solution to each cell culture was added and the cell culture was incubated at 37° C. for one hour, and then the cells were measured by the spectrophotometer MICROPLATE READER (THERMO LABSYSTEMS MULTISKAN RC) at 450 nm absorption, and the experimental results were analyzed by a comparison with the control group."}, "[5]": {"test_system": "IL-6 gene expression in THP1 cells differentiated into M1-type macrophages", "experiment": "Real-time PCR inflammatory gene expression assay, IL-6", "type": "cell-based, human", "details": "16 μM; THP1 differentiation into M1-type macrophages (LPS, IFN-γ); 25 mM glucose", "procedure": "as §1, §2"}}, "data": [{"smiles": "CC1OC(OC2C(O)C(OCCc3ccc(O)c(O)c3)OC(CO)C2OC(=O)CCc2ccc(O)c(O)c2)C(O)C(O)C1O", "note": "(centres unmarked) [Nusynside]", "values": [{"measurement": "expression of TNF-α gene", "setting": "[1]", "result": "significantly downregulated"}, {"measurement": "wound healing rate", "setting": "[2]", "result": "significantly increased the wound healing rate"}, {"measurement": "promotion of cell proliferation of HaCaT cells", "setting": "[3]; 3.2 μM", "result": 12, "unit": "%"}, {"measurement": "promotion of cell proliferation of HaCaT cells", "setting": "[3]; 16 μM", "result": 17, "unit": "%"}, {"measurement": "promotion of cell proliferation of HaCaT cells", "setting": "[3]; 32 μM", "result": 14, "unit": "%"}, {"measurement": "promotion of cell proliferation of Hs68 cells", "setting": "[4]; 16 μM", "result": 9, "unit": "%"}, {"measurement": "promotion of cell proliferation of Hs68 cells", "setting": "[4]; 32 μM", "result": 12, "unit": "%"}, {"measurement": "expression of IL-6 gene", "setting": "[5]", "result": "significantly downregulated"}]}]}
